One compound from patent publication US20180256654A1, “USE OF LACTOBACILLUS PARACASEI STRAIN GMNL-653 TO PREPARE COMPOSITION FOR RESISTING BONE LOSS” (GENMONT BIOTECH INC., priority 2017, published 2018) can be followed below.

For this assay, the system named is ovariectomized ICR female mice. The assay can be described thus: Bone tissue analysis by micro computed tomography: trabecular bone volume ratio in the osteoporosis mouse model. It counts as in vivo. The following applies: oral gavage for 28 days. On the procedure:
Preparation of dead bacteria: 1 μl Lactobacillus paracasei strain GMNL-653 and the Lactobacillus salivarius strain GMNL-678 frozen viral was inoculated to 1 ml of MRS broth, respectively, and aerobically incubated at 37° C. for 20 hours (first activation). The next day, adding 15 μl culture solution (first activation) into 1.5 ml of MRS broth, and then and aerobically incubated at 37° C. for 20 hours (secondary activation) Estimating the bacteria number by using OD 600 nm to adjust the bacteria concentration to 4.1×10^8 CFU/ml, and heat-killed bacteria was carried by autoclaving at 121° C. for 15 minutes. […]
Micro computed tomography (SkyScan 1076, Kontizh, Belgium, with resolution of 18 μm) was taken of the backbone of the right femur far from the end was taken, and the trabecular bone volume ratio (i.e. bone volume/tissue volume; BV/TV) was analyzed by a software. The analyzed position was selected to include the area of 100 pieces under the growth plate excluding cortical bone. […] The obtained data in the experiments were analyzed with two-way analysis of variance, and the T-test statistical analysis. […] After comparisons, the abovementioned groups were analyzed statistically and noted by different marks to represent the statistically significant differences (* represents p<0.05; ** represents p<0.01 See Table 3 and Table 4, showing the results of the experiment 1.

With `NCCCC(O)(P(=O)(O)O)P(=O)(O)O` [Alendronate], the “BV/TV compared with the disease group (OVX+H2O), in words” value is “higher than the disease group”.
